Assay results: patent publication US12262713B2, “Method of controlling weeds” (SUMITOMO CHEMICAL COMPANY, LIMITED, priority 2018, dated 2025)
Where a name gives a salt, the structure may show the parent alone.

Experiments:
Type in all cases: in vivo
[1] = system: glyphosate-resistant Amaranthus palmeri in which the number of copies of EPSPS gene had been increased; assay: Foliar spray pot test in greenhouse, herbicidal effect (Example 29); settings: foliar spray 200 L/ha at 18 days, rated 14 days after treatment, rating 0 to 100
Protocol: (§1) In a plastic pot filled with soli were seeded glyphosate-resistant Amaranthus palmeri in which the number of copies of EPSPS gene had been increased (produced by Azlin Seed Service) and glyphosate-sensitive Amaranthus palmeri (produced by Azlin Seed Service). The weeds were cultivated in a greenhouse for 18 days, and then an aqueous spray liquid [i.e., a liquid prepared by diluting a predetermined amount of a trifludimoxazin formulation (i.e., an emulsifiable concentrate prepared by mixing 20 parts of trifludimoxazin with 80 parts of a liquid cocktail (i.e., a mixture of 5 parts of cyclohexanone and 1 part of SORPOL 2680X (manufactured by TOHO Chemical Industry Co., Ltd.))) with water containing a spreading agent] was sprayed uniformly from above the weeds at the amount of 200 L/ha using a sprayer. Subsequently, the weeds were allowed to grow in a greenhouse for 14 days, and then the herbicidal effect was examined. As a reference example, the same procedure was carried out, except that the trifludimoxazin formulation was replaced with a predetermined amount of a glyphosate formulation (i.e., a soluble liquid containing 660 g/L of glyphosate potassium salt: “ROUNDUP MAXLOAD” (manufactured by Nissan Chemical Corporation). The results are shown in the table 1.

[2] = system: glyphosate-sensitive Amaranthus palmeri; assay: as above; settings: foliar spray 200 L/ha at 18 days, rated 14 days after treatment, rating 0 to 100
Protocol: as §1

[3] = system: glyphosate-resistant weeds (Amaranthus palmeri, waterhemp, kochia, marestail, Guernsey fleabane, fleabane, goosegrass, darnel, volunteer glyphosate-tolerant …); assay: Soil treatment pot test on day of seeding (Example 1); settings: soil treatment at 6.25, 12.5, 25, 50, 100 or 150 g/ha; 200 L/ha; twenty-eight days after the treatment
Protocol: (§2) In a plastic pot filled with soil are seeded glyphosate-resistant Amaranthus palmeri in which the number of copies of EPSPS gene has been increased, glyphosate-resistant waterhemp in which the number of copies of EPSPS gene has been increased, glyphosate-resistant kochia in which the number of copies of EPSPS gene has been increased, marestail which is resistant to glyphosate by involving an ABC transporter, Guernsey fleabane which is resistant to glyphosate by involving an ABC transporter, fleabane which is resistant to glyphosate by involving an ABC transporter, glyphosate-resistant goosegrass having Thr102Ile, glyphosate-resistant goosegrass having Pro106Ser, glyphosate-resistant goosegrass having Pro106Ala, glyphosate-resistant goosegrass having Pro106Leu, glyphosate-resistant goosegrass having Thr102Ile and Pro106Ser, glyphosate-resistant darnel having Thr102Ile, glyphosate-resistant darnel having Pro106Ser, glyphosate-resistant darnel having Pro106Ala, glyphosate-resistant darnel having Pro106Leu, volunteer glyphosate-tolerant soybean, and volunteer glyphosate-tolerant cotton. On the same day, the soil is treated with trifludimoxazin at the application rate of 6.25, 12.5, 25, 50, 100 or 150 g/ha. The amount of a liquid sprayed is 200 L/ha. Subsequently, the plants are cultivated in a greenhouse.

[4] = system: glyphosate-resistant weeds (Amaranthus palmeri, waterhemp, kochia, marestail, Guernsey fleabane, fleabane, goosegrass, darnel, volunteer glyphosate-tolerant …); assay: Foliar treatment pot test 21 days after seeding (Example 2); settings: foliage application at 6.25, 12.5, 25, 50, 100 or 150 g/ha; 200 L/ha; fourteen days after the treatment
Protocol: as §2, with “The plants are cultivated in a greenhouse for 21 days, and then trifludimoxazin is applied to foliage of” for “On”, “plants” for “same day, the soil is treated with trifludimoxazin”, “at” for “at the”

SMILES	Effect on glyphosate-resistant Amaranthus palmeri ([1]; application rate 1540 g/ha)	Effect on glyphosate-resistant Amaranthus palmeri ([1]; application rate 6160 g/ha)	Effect on glyphosate-sensitive Amaranthus palmeri ([2]; application rate 385 g/ha)	Effect on glyphosate-sensitive Amaranthus palmeri ([2]; application rate 1540 g/ha)	effect against the weeds [3]	Effect on glyphosate-resistant Amaranthus palmeri ([1]; application rate 6.25 g/ha)	Effect on glyphosate-resistant Amaranthus palmeri ([1]; application rate 12.5 g/ha)	Effect on glyphosate-resistant Amaranthus palmeri ([1]; application rate 25 g/ha)	Effect on glyphosate-sensitive Amaranthus palmeri ([2]; application rate 6.25 g/ha)	Effect on glyphosate-sensitive Amaranthus palmeri ([2]; application rate 12.5 g/ha)	Effect on glyphosate-sensitive Amaranthus palmeri ([2]; application rate 25 g/ha)	effect against the weeds [4]
O=C(O)CNCP(=O)(O)O [Glyphosate potassium salt, glyphosate potassium salt]	20	70	100	100								
C#CCN1C(=O)C(F)(F)Oc2cc(F)c(-n3c(=O)n(C)c(=S)n(C)c3=O)cc21 [Trifludimoxazin, trifludimoxazin]					significant effect	100	100	100	65	70	80	significant effect
